Data from PubChem BioAssay (NCI).
Several values for one entry are separate records, joined by “and”; a condition that tells them apart may be missing. Equal entries are not always repeated.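 Step 1: Grow cells in 96-well plates. Step 2: Expose to compound for 48 hours at 5 concentrations. Step 3: Interpolate endpoints linearly; if unreached, use highest concentration. The concentration for 50% growth inhibition is given as GI50. TGI: total growth inhibition.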

How the values were obtained:
Test in all cases: inhibition of tumour cell growth, NCI panel, 48 h
CCRF-CEM leukemia = system: CCRF-CEM leukemia
HCT-116 colon = system: HCT-116 colon
M14 melanoma = system: M14 melanoma
MCF7 breast = system: MCF7 breast
NCI-H23 lung = system: NCI-H23 lung
NCI-H522 lung = system: NCI-H522 lung
OVCAR-3 ovarian = system: OVCAR-3 ovarian
OVCAR-8 ovarian = system: OVCAR-8 ovarian
PC-3 prostate = system: PC-3 prostate
SF-539 CNS = system: SF-539 CNS
TK-10 renal = system: TK-10 renal
M19-MEL melanoma = system: M19-MEL melanoma
XF 498 CNS = system: XF 498 CNS

SMILES | TGI (CCRF-CEM leukemia) | TGI (HCT-116 colon) | TGI (M14 melanoma) | TGI (MCF7 breast) | TGI (NCI-H23 lung) | TGI (NCI-H522 lung) | TGI (OVCAR-3 ovarian) | TGI (OVCAR-8 ovarian) | TGI (PC-3 prostate) | TGI (SF-539 CNS) | TGI (TK-10 renal) | TGI (M19-MEL melanoma) | TGI (XF 498 CNS) | GI50 (CCRF-CEM leukemia) | GI50 (HCT-116 colon) | GI50 (NCI-H23 lung) | GI50 (NCI-H522 lung) | GI50 (OVCAR-3 ovarian) | GI50 (OVCAR-8 ovarian) | GI50 (PC-3 prostate)
c1ccc2c3[nH]c(c2c1)=Nc1ccc(cc1)-c1nc2ccc(cc2o1)N=c1[nH]c(c2ccccc12)=Nc1ccc2nc(oc2c1)-c1ccc(cc1)N=3 | 26.7 µM | > 100 µM | > 100 µM | > 100 µM | > 100 µM | > 100 µM | > 100 µM | > 100 µM | > 100 µM | > 100 µM | > 100 µM |  |  |  |  |  |  |  |  | 
C=CC1(CC[C@]2(c3ccc(OC)c(OC)c3)C=[N+]([O-])O[C@H](O[C@@H]3CCCC[C@H]3C(C)(C)c3ccccc3)C2)OCC(C)(C)CO1 | 23.8 µM | 41.3 µM | > 58.1 µM | > 42.4 µM | > 100 µM | 17.1 µM | 25.1 µM | 40.6 µM | 28.3 µM | 31.2 µM | > 67.8 µM |  |  |  |  |  |  |  |  | 
Oc1c(Br)ccc2cccnc12 | 3.98 µM | > 100 µM | > 32.5 µM | 2.73 µM | 7.28 µM | 6.21 µM | > 23.3 µM | > 100 µM | > 100 µM | > 50.6 µM | > 100 µM |  |  |  |  |  |  |  |  | 
C[n+]1c2ccccc2c(NC(CCCN=C(N)N)C(=O)O)c2ccccc21 (centres undefined) |  | > 100 µM | > 100 µM |  | > 100 µM | > 100 µM | > 100 µM | > 100 µM |  | > 100 µM | > 100 µM | > 100 µM | > 100 µM |  |  |  |  |  |  | 
O=C1CC(=O)NC(=NN2C(=O)/C(=C/c3ccc(Cl)c(Cl)c3)N=C2c2ccccc2)N1 | 45.3 µM | 38 µM | 83.5 µM | 49.8 µM | > 100 µM | 86 µM | 49.4 µM | 94.9 µM | 72.7 µM | 39.6 µM | > 100 µM |  |  |  |  |  |  |  |  | 
COc1ccc2nc(-c3ccccc3)c(=O)[nH]c2c1 | > 100 µM | > 100 µM | > 100 µM | > 100 µM | > 100 µM | > 100 µM | > 100 µM | > 100 µM | > 100 µM | > 100 µM | > 100 µM |  |  |  |  |  |  |  |  | 
CC(=O)c1ccc2c(c1)C(=O)c1sc(C(C)=O)cc1C2=O |  | 14.3 µM and 12.3 µM | 2.21 µM | 4.7 µM | 2.6 µM and 5.35 µM | 1.7 µM and 0.585 µM | 2.36 µM and 1.85 µM | 1.69 µM and 2.67 µM | 7.12 µM and 11.3 µM | 1.86 µM | 5.55 µM |  |  | 0.182 µM | 0.349 µM | 0.607 µM | 0.222 µM | 0.329 µM | 0.587 µM | 2.55 µM
O=C1/C(=C\c2cccc(Oc3ccccc3)c2)S(=O)(=O)C(c2ccccc2)N1c1cccc(Cl)c1 (centres undefined) | 83.9 µM | > 100 µM | > 100 µM | > 100 µM | > 100 µM | > 100 µM | > 100 µM | 69.4 µM | > 100 µM | > 100 µM | > 100 µM |  |  |  |  |  |  |  |  | 
Nc1c(S(=O)(=O)c2ccccc2)c2nc3ccccc3nc2n2c1nc1ccccc12 | > 100 µM | > 100 µM | > 31.6 µM |  | > 50 µM | > 100 µM | > 100 µM | > 63.4 µM |  | > 53.9 µM | > 100 µM | > 100 µM | > 44.5 µM |  |  |  |  |  |  | 
